Source: patent US10837062B2, “Method for predicting a treatment response to a CRHR1 antagonist and/or a V1B antagonist in a patient with depressive and/or anxiety symptoms” (Max-Planck-Gesellschaft zur Förderung der Wissenschaften …, priority 2013, dated 2020)

Legend:
control littermates (CL) [1] = assay: REMS activity by EEG/EMG sleep recording in control littermates (CL) of CRH-COE^CNS mice; type: in vivo; conditions: CL mice of CRH-COE^CNS line; 50 mg/kg/d via drinking water
Experimental: (§1) Experiments were conducted with two different mouse lines of excessive central CRH secretion and their respective control littermates (CL). Mice of the CRH-COE^CNS line are characterised by CRH-overexpression within the whole CNS, whereas mice of the Cor26 CRH line display a CRH-overexpression specific to CRH-ergic neurons of the CNS. Three different CRHR1 antagonists were tested. […] In all cases, animals were left to recover from EEG/EMG-electrode implantation for two weeks, after which two days of baseline recording were initiated. Treatment with CRH-R1 antagonist or respective vehicle control commenced thereafter for five consecutive days. Antagonists were applied through the drinking water at a daily dose of 50 mg/kg body weight. EEG and EMG recordings were manually scored as wake, non-REMS (NREMS), and REMS in four second epochs by an experienced evaluator.

CRH-COE^CNS mice = assay: REMS activity by EEG/EMG sleep recording in CRH-COE^CNS mice; conditions: for REMS activity: 50 mg/kg/d via drinking water, treatment days vs baseline, significant from treatment day two (DMP-696 P<0.05; SSR125543 P≤0.035)
control littermates (CL) [2] = assay: REMS activity by EEG/EMG sleep recording in control littermates (CL) of Cor26 CRH mice; type: in vivo; conditions: CL animals of Cor26 CRH line; 50 mg/kg/d via drinking water
Experimental: as §1

Cor26 CRH mice = assay: REMS activity by EEG/EMG sleep recording in Cor26 CRH mice; conditions: for REMS levels / REMS activity: CRH-overexpressing Cor26 CRH mice, 50 mg/kg/d via drinking water

SMILES	REMS activity in control littermates (control littermates (CL) [1])	treatment day of strongest suppression of REMS activity (CRH-COE^CNS mice; CRH-COE^CNS animals, 50 mg/kg/d)	REMS suppression relative to baseline REMS-levels of CL (CRH-COE^CNS mice; CRH-COE^CNS mice, 50 mg/kg/d)	REMS activity (CRH-COE^CNS mice; CRH-COE^CNS mice, 50 mg/kg/day)	REMS activity (CRH-COE^CNS mice; CRH-COE^CNS mice, listed as DMP696, 50 mg/kg/day)	REMS levels in control littermates (control littermates (CL) [2])	REMS levels / REMS activity (Cor26 CRH mice; 50 mg/kg/day)	REMS levels / REMS activity (Cor26 CRH mice; listed as CP-316311, 50 mg/kg/day)	REMS levels, area under the curve (AUC) within the light period (Cor26 CRH mice; Cor26 CRH mice, baseline vs treatment day three, P=0.006)
COCC(COC)Nc1nc(C)nc2c(-c3ccc(Cl)cc3Cl)c(C)nn12 [DMP-696]	only a mild suppression	treatment day three	never exceeded baseline REMS-levels of CL	significant decrease	suppressed				
CCC(CC)Oc1cc(C)nc(Oc2c(C)cc(C)cc2C)c1C [CP-316,311]						no significant effect	weak	suppressed	significant decrease
